Laboratory results taken from patent publication US10857180B2, “Pharmaceutical composition for improving health, cure abnormalities and degenerative disease, achieve anti-aging effect of therapy and therapeutic effect on mammals and method thereof” (priority 2014, dated 2020).
Where “and” joins values, the source holds several entries; their conditions need not be identical. Identical values can stand only once. Marks after values point to notes of the source that are not given here.

Experiments:
[1] = system: healthy human skin cells (HaCaT cell line); test: Scratch assay, HaCaT cells; format: cell-based; conditions: ^64Zn 25 mcg/ml; equal to control
Description: The cells of A-549, A-431, NRK, HaCaT, MM-4, normal fibroblasts (derived from the Bank of Cell Lines from human and animal tissues, R. E. Kavetsky Institute of Experimental Pathology, Oncology and Radiobiology, National Academy of Sciences of Ukraine) were cultured in complete culture medium RPMI 1640/DMEM (PAA, Austria) (depending on the cell type) supplemented with 10% fetal calf serum (PAA, Austria) and incubated in 5% CO2 humidified atmosphere at 37° C. The culture medium was replaced in 2 to 3 days and the cells were passaged in 4 to 5 days.
Analysis of the influence of the components under study on the cell migration rate was performed using the scratch assay method. […]
The plate was incubated in a CO2 incubator for additional 48 hours. After the cells formed a dense monolayer it was damaged (by making a “scratch”) and the growth medium was replaced to remove cell debris and smooth the edges of the “scratch.” The rate of cell migration was analyzed using an inverted microscope and by photographing cells in the area of injury. The migration activity of cells was fixed at several time points (depending on the cell line analyzed). The microphotomicrographs were analyzed and the cell incubation time needed to restore the monolayer was determined for all experimental groups. […]

[2] = system: mouse L1210 leukemia; test: Mouse L1210 leukemia model; format: in vivo
Description: The efficacy of the ^64Zne aspartate composition with respect to growth and metastatic activity of the experimental tumor (strain of mouse L1210 leukemia) was assessed in the experiment. […] To inoculate the strain, tumor cells derived from ascitic fluid were placed in normal saline solution, the cellularity of suspension was determined using a hemocytometer and adjusted to a concentration of 1×10^6 cells/ml with saline solution. The tumor was transplanted by injecting 250 μl of the tumor cell suspension (0.25×10^6 cells/mouse) into abdominal cavities of the animals. 80 male BDFi mice at the age of 8-10 weeks, weighing 18-22 g were used in the experiment.
In the experiment, 0.25×10^6 cells of mouse L1210 leukemia in 0.3 ml of saline solution were injected in the peritoneal cavities of the BDFi mice. The agent according to the invention was dissolved in deuterium-depleted water (deuterium-depleted water Langvey) and given to the experimental animals from the first day after the inoculation of the tumor cells. The solution composition comprising ^64Zne aspartate and deuterium-depleted water was injected intraperitoneally using a microinjection syringe at doses of 25 μg/mouse, 50 μg/mouse and 75 pig/mouse every other day (7 times during 14 days) in a volume of 0.5 ml/mouse. The said agent was also injected intravenously at a dose of 25 μg/mouse every other day (7 times during 14 days) in a volume of 0.2 ml/mouse. […] At day 8, 13 and 18 after inoculation of tumor cells, the whole ascites fluid was recovered from the animals and the total number of live/dead cells in each mouse was determined. Some mice were also used to evaluate their average life span in the experiment.
Clinical observations were carried out as described in Example 7. The animals were divided into groups as follows (16 mice per group): • 1. Group No 1: control group, L1210+solvent (deuterium-depleted water); • 2. Group No 2: L1210+^64Zne aspartate administered i.v. at a dose of 25 μg/mouse; • 3. Group No 3: L1210+^64Zne aspartate administered i.p. at a dose of 25 μg/mouse; • 4. Group No 4: L1210+^64Zne aspartate administered i.p. at a dose of 50 μg/mouse; • 5. Group No 5: L1210+^64Zne aspartate administered i.p. at a dose of 75 μg/mouse.
^64Zne aspartate was diluted in deuterium-depleted water and injected, starting from the first day of the tumor transplantation, 7 times every other day during 14 days in a volume of 0.5 ml/mouse using an i.p. route of administration and in a volume of 0.2 ml/mouse using an i.v. route of administration. The animals of the control group received intraperitoneal injections with 0.5 ml/mouse of deuterium-depleted water.
The dynamics of formation of ascites in the control and experimental groups was assessed visually using a 10-point scale (one point was 0.5 cm of the mean diameter of the mouse abdomen filled with ascites).
In addition, at 8, 13 and 18 days after the mice were inoculated with the tumor cells, all ascitic fluid was removed from the abdomens in all animals from each group by washing their peritoneal cavities with saline solution and live and dead tumor cells were counted using the traditional vital dye trypan blue (HyClon, USA) and a hemocytometer.
The number of cells was determined using the following formula: X=((a)/80)×10^6, where X is the number of cells in 1 ml and a is the number of cells counted in 80 small squares of the hemocytometer.
50% of the mice in each group were used to assess their average length of survival in the experiment. The percentage change in the lifespan of the experimental animals was calculated using the following formula: (c−d)/[…]×100, where: c is the average lifespan in the experimental group and d is the average lifespan in the control group. The total time of observation of the lifespan of the experimental animals was 60 days after the tumor inoculation.

Question: With `O=S(=O)([O-])[O-].[64Zn+2]` [^64Zn] as the compound, how does the “time of monolayer healing” value [1] read?
Answer: Its value is 36 h.

Question: What does the source list for `NC(CC(=O)[O-])C(=O)[O-].[64Zn+2]` (racemic) [^64Zne aspartate, ^64Zn aspartate (racemic)]?
Answer: decrease in the number of live cells in the peritoneal cavities ([2]; 50 μg/mouse or 75 μg/mouse, after 3 injections): 100%; Number of live cells/mouse (M ± m) ([2]; day 8, i.p. 25 μg/mouse): 335.8 × 10^6; Percentage of dead tumor cells in ascites fluid ([2]; day 8, i.p. 25 μg/mouse): below 2%; Volume of ascites (M ± m) ([2]; day 8, i.p. 25 μg/mouse): 0.8 ± 0.8 ml/mouse; number of cells in the ascites of the one mouse with tumor cells ([2]; day 8, i.p. 25 μg/mouse, 1 of 2 mice): indicators (671. 6 × 10^6). No; Number of live cells/mouse (M ± m) ([2]; day 8, i.p. 50 μg/mouse): 0**; Percentage of dead tumor cells in ascites fluid ([2]; day 8, i.p. 50 μg/mouse): 0%; Volume of ascites (M ± m) ([2]; day 8, i.p. 50 μg/mouse): 0* ml/mouse; Number of live cells/mouse (M ± m) ([2]; day 8, i.p. 75 μg/mouse): 0**; Percentage of dead tumor cells in ascites fluid ([2]; day 8, i.p. 75 μg/mouse): 0%; Volume of ascites (M ± m) ([2]; day 8, i.p. 75 μg/mouse): 0* ml/mouse; Number of live cells/mouse (M ± m) ([2]; day 8, i.v. 25 μg/mouse): 902 × 10^6; Percentage of dead tumor cells in ascites fluid ([2]; day 8, i.v. 25 μg/mouse): below 2%; Volume of ascites (M ± m) ([2]; day 8, i.v. 25 μg/mouse): 1.2 ± 0.3 ml/mouse; Number of live cells/mouse (M ± m) ([2]; day 13, i.p. 25 μg/mouse): 532.7 × 10^6; Percentage of dead tumor cells in ascites fluid ([2]; day 13, i.p. 25 μg/mouse): below 3%; Volume of ascites (M ± m) ([2]; day 13, i.p. 25 μg/mouse): 1.9 ± 1.5 ml/mouse; Number of live cells/mouse (M ± m) ([2]; day 13, i.p. 50 μg/mouse): 0**; Percentage of dead tumor cells in ascites fluid ([2]; day 13, i.p. 50 μg/mouse): 0%; Volume of ascites (M ± m) ([2]; day 13, i.p. 50 μg/mouse): 0* ml/mouse; Number of live cells/mouse (M ± m) ([2]; day 13, i.p. 75 μg/mouse): 0**; Percentage of dead tumor cells in ascites fluid ([2]; day 13, i.p. 75 μg/mouse): 0%; Volume of ascites (M ± m) ([2]; day 13, i.p. 75 μg/mouse): 0* ml/mouse; Number of live cells/mouse (M ± m) ([2]; day 13, i.v. 25 μg/mouse): 1322 × 10^6; Percentage of dead tumor cells in ascites fluid ([2]; day 13, i.v. 25 μg/mouse): below 3%; Volume of ascites (M ± m) ([2]; day 13, i.v. 25 μg/mouse): 6 ± 1.5 ml/mouse; amount of ascites less than control ([2]; day 15, 50 μg): 87%; amount of ascites less than control ([2]; day 15, 75 μg): 90%; amount of ascites less than control ([2]; day 15, i.p. 25 μg/mouse): 60%; Average lifespan of animals (M ± m) ([2]; i.p. 25 μg/mouse): 28.1 ± 4.7 days; Increase in the lifespan of experimental animals ([2]; i.p. 25 μg/mouse): 41.3%; Number of animals in the group with tumor ([2]; i.p. 25 μg/mouse): 11 pc; Number of animals in the group without tumor ([2]; i.p. 25 μg/mouse): 5 pc; Tumor-free animals ([2]; i.p. 25 μg/mouse x7): 31.2%; Volume of ascites in mice ([2]; i.p. 25 μg/mouse x7, day 8): 0.6 ± 0.3 points; Volume of ascites in mice ([2]; i.p. 25 μg/mouse, day 10): 1.1 ± 0.5 points; Volume of ascites in mice ([2]; i.p. 25 μg/mouse, day 13): 2.5± 0.6 points; Volume of ascites in mice ([2]; i.p. 25 μg/mouse, day 15): 4.1 points and 4.1 ± 1.1 points; Volume of ascites in mice ([2]; i.p. 25 μg/mouse, day 18): 4.8 ± 1.4 points; Volume of ascites in mice ([2]; i.p. 25 μg/mouse, day 20): 4.6 ± 1.8 points; Volume of ascites in mice ([2]; i.p. 25 μg/mouse, day 22): 3.5 ± 2.2 points; Volume of ascites in mice ([2]; i.p. 25 μg/mouse, day 26): 2.5 ± 2.5 points; Volume of ascites in mice ([2]; i.p. 25 μg/mouse, day 28): 0 points; Average lifespan of animals (M ± m) ([2]; i.p. 50 μg/mouse): 41.6 ± 8.7 days; Increase in the lifespan of experimental animals ([2]; i.p. 50 μg/mouse): 60.3%; Number of animals in the group with tumor ([2]; i.p. 50 μg/mouse): 5 pc; Number of animals in the group without tumor ([2]; i.p. 50 μg/mouse): 11 pc; Tumor-free animals ([2]; i.p. 50 μg/mouse x7): 68.8%; Volume of ascites in mice ([2]; i.p. 50 μg/mouse x7, day 8): 0* points; Volume of ascites in mice ([2]; i.p. 50 μg/mouse, day 10): 0* points; Volume of ascites in mice ([2]; i.p. 50 μg/mouse, day 13): 0.4 ± 0.2 points; Volume of ascites in mice ([2]; i.p. 50 μg/mouse, day 15): 1.3 ± 0.7 points; Volume of ascites in mice ([2]; i.p. 50 μg/mouse, day 15, listed as 64Zn aspartate): 1.3 points; Volume of ascites in mice ([2]; i.p. 50 μg/mouse, day 18): 1.1 ± 1.1 points; Volume of ascites in mice ([2]; i.p. 50 μg/mouse, day 20): 0 points; Volume of ascites in mice ([2]; i.p. 50 μg/mouse, day 22): 0 points; Volume of ascites in mice ([2]; i.p. 50 μg/mouse, day 26): 0 points; Volume of ascites in mice ([2]; i.p. 50 μg/mouse, day 28): 0 points; Average lifespan of animals (M ± m) ([2]; i.p. 75 μg/mouse): 55 ± 5 days; Increase in the lifespan of experimental animals ([2]; i.p. 75 μg/mouse): 70%; Number of animals in the group with tumor ([2]; i.p. 75 μg/mouse): 1 pc; Number of animals in the group without tumor ([2]; i.p. 75 μg/mouse): 15 pc; Tumor-free animals ([2]; i.p. 75 μg/mouse x7): 93.8%; Volume of ascites in mice ([2]; i.p. 75 μg/mouse x7, day 8): 0* points; Volume of ascites in mice ([2]; i.p. 75 μg/mouse, day 10): 0* points; Volume of ascites in mice ([2]; i.p. 75 μg/mouse, day 13): 0.4 ± 0.4 points; Volume of ascites in mice ([2]; i.p. 75 μg/mouse, day 15): 1 ± 1 points; Volume of ascites in mice ([2]; i.p. 75 μg/mouse, day 15, listed as 64Zn aspartate): 1 points; Volume of ascites in mice ([2]; i.p. 75 μg/mouse, day 18): 1.1 ± 1.1 points; Volume of ascites in mice ([2]; i.p. 75 μg/mouse, day 20): 0 points; Volume of ascites in mice ([2]; i.p. 75 μg/mouse, day 22): 0 points; Volume of ascites in mice ([2]; i.p. 75 μg/mouse, day 26): 0 points; Volume of ascites in mice ([2]; i.p. 75 μg/mouse, day 28): 0 points; Increase in the lifespan of experimental animals ([2]; i.v. 25 μg/mouse): 2.4%; Number of animals in the group without tumor ([2]; i.v. 25 μg/mouse): 0 pc; Tumor-free animals ([2]; i.v. 25 μg/mouse): 0%; Volume of ascites in mice ([2]; i.v. 25 μg/mouse x7, day 8): 3.3 ± 0.3 points; Number of animals in the group with tumor ([2]; i.v. 25 μg/mouse, 16 mice per group): 16 pc; Average lifespan of animals (M ± m) ([2]; i.v. 25 μg/mouse, 60 days observation): 16.9 ± 1.3 days; Volume of ascites in mice ([2]; i.v. 25 μg/mouse, day 10): 4.7 ± 0.4 points; Volume of ascites in mice ([2]; i.v. 25 μg/mouse, day 13): 7.7 ± 0.4 points; Volume of ascites in mice ([2]; i.v. 25 μg/mouse, day 15): 9.7 ± 0.3 points; Volume of ascites in mice ([2]; i.v. 25 μg/mouse, day 18): 8 ± 0.9 points; Volume of ascites in mice ([2]; i.v. 25 μg/mouse, day 20): 10 points; percentage of dead tumor cells in the ascites treated with the agent ([2]; mouse, in vivo): ≤ 5%; effect on the growth of mouse leukemia L1210 cells ([2]; series of intravenous injections): no effect
